Format in all cases: in vivo
Assay [1] relates to tobacco cutworm (Spodoptera litura) larvae. Put plainly: Test against tobacco cutworm (Spodoptera litura) larvae, leaf dip. Conditions: active compound concentration of 100 ppm; third-instar larvae on sweet potato leaves; after 7 days. As to the method:
(§1) Unless not mentioned otherwise, the test solutions were prepared as follows:
(§2) Containing as solvent: Dimethylformamide, 3 parts by weight; and as emulsifier: Polyoxyethylene alkyl phenyl ether, 1 part by weight
(§3) To prepare the test solution, 1 part by weight of an active compound is mixed with the above-mentioned amount of solvent containing the above-mentioned amount of emulsifier, and the mixture is diluted with water to the desired concentration.
The leaves of sweet potato were immersed in the test solution at the appropriate concentration, and the leaves were dried in air. The leaves were then placed in a petri dish having a diameter of 9 cm, and ten third-instar larvae of tobacco cutworm were released therein. The petri dish was placed in a temperature-controlled chamber at 25° C. After 2 days and 4 days sweet potato leaves were additionally added. After 7 days, the number of dead larvae was counted to calculate the insecticidal activity. An insecticidal activity of 100% means that all larvae were killed, whereas an insecticidal activity of 0% means that no larva was killed. In the current test, the results of two petri dishes for each partition were averaged.

Assay [2] concerns cucurbit leaf beetle (Aulacophora femoralis). Put plainly: Test against cucurbit leaf beetle (Aulacophora femoralis), leaf dip. To be noted: active compound concentration of 100 ppm; second-instar larvae on cucumber leaves; after 7 days. The method, then: as §1, §2, §3
Cucumber leaves were immersed in the test solution at the appropriate concentration, and the leaves were dried in air. The leaves were then placed in a plastic cup containing sterilized black soil, and five second-instar larvae of cucurbit leaf beetle were released therein. The plastic cup was placed in a temperature-controlled chamber at 25° C. After 7 days, the number of dead larvae was counted, and thus the insecticidal activity was calculated. An insecticidal activity of 100% means that all beetles were killed, whereas an insecticidal activity of 0% means that no beetle was killed.

In assay [3] the test system is two-spotted spider mite (Tetranychus urticae). The assay can be described thus: Test against two-spotted spider mite (Tetranychus urticae), spray. Conditions: concentration of 100 ppm; adult mites on kidney beans; after 7 days. The method, then: as §1, §2, §3
50 to 100 adult two-spotted spider mites were inoculated onto the leaves of kidney beans at the two-true leaf stage, which plant had been cultivated in a pot having a diameter of 6 cm. After one day, test solution at the appropriate concentration was sprayed thereon in a sufficient amount using a spray gun. After the spraying, the plant pot was placed inside a greenhouse, and after 7 days, the acaricidal activity was calculated. An acaricidal activity of 100% means that all mites were killed, whereas an acaricidal activity of 0% means that no mite was killed.

Regarding `CCc1cc(C(C#N)(C(F)(F)F)C(F)(F)F)cc(C)c1NC(=O)c1cccc(NC(=O)c2cccnc2Cl)c1` [4-5], the insecticidal activity in assay [1] and in assay [2] was 100% in each case. The same compound came in with an acaricidal activity rate in assay [3] of 100%.

In turn, `CCc1cc(C(n2cc(Cl)cn2)(C(F)(F)F)C(F)(F)F)cc(C)c1NC(=O)c1cccc(NC(=O)c2cccnc2)c1` [2-42] registered an acaricidal activity rate in assay [3] of 100%.

`O=C(Nc1c(Br)cc(C(CF)(n2cc(Cl)cn2)C(F)(F)F)cc1Br)c1cccc(NC(=O)c2cccnc2Cl)c1` (centres unmarked) [2-24]: the insecticidal activity in assay [1] and in assay [2] was 100% in each case. For the same compound, the acaricidal activity rate in assay [3] is recorded as 100%.

As for `Cc1cc(C(n2cc(F)cn2)(C(F)(F)F)C(F)(F)F)cc(C)c1NC(=O)c1cccc(NC(=O)c2cccnc2Cl)c1` [2-6], the insecticidal activity in assay [1] and in assay [2] was 100% each time. The compound further registered an acaricidal activity rate in assay [3] of 100%.

In the case of `Cc1cc(C(N=[N+]=[N-])(C(F)(F)F)C(F)(F)F)cc(C)c1NC(=O)c1cccc(NC(=O)c2cccnc2Cl)c1` [2-145], the insecticidal activity in assay [1] and in assay [2] was 100% in each case. For the same compound, the acaricidal activity rate in assay [3] worked out at 100%.

`CCOC(c1cc(I)c(NC(=O)c2cccc(NC(=O)c3ccc(Cl)nc3Cl)c2)c(I)c1)(C(F)(F)F)C(F)(F)F` [1-61]: the insecticidal activity in assay [2] came to 100%. The acaricidal activity rate in assay [3] is 100%.

In the case of `CC(c1cc(Br)c(NC(=O)c2cccc(NC(=O)c3cccnc3Cl)c2)c(Br)c1)(n1cc(Br)cn1)C(F)(F)F` (centres unmarked) [2-83], the insecticidal activity in assay [1] and in assay [2] was 100% in each case. Also, in assay [3], the acaricidal activity rate worked out at 100%.

As for `O=C(Nc1c(Br)cc(C(n2cc(Cl)cn2)(C(F)(F)F)C(F)(F)F)cc1Br)c1cccc(NC(=O)c2cccnc2Cl)c1` [2-62], the insecticidal activity in assay [1] and in assay [2] was 100% in each case. Moreover, the acaricidal activity rate in assay [3] worked out at 100%.

Regarding `CC(c1cc(Br)c(NC(=O)c2cccc(NC(=O)c3cccnc3F)c2)c(Br)c1)(n1cc(Br)cn1)C(F)(F)F` (centres unmarked) [2-82], the insecticidal activity in assay [1] and in assay [2] was 100% in each case. Also, the acaricidal activity rate in assay [3] worked out at 100%.

Take `Cc1cc(C(n2cc(Cl)cn2)(C(F)(F)F)C(F)(F)F)cc(Br)c1NC(=O)c1cccc(NC(=O)c2cccnc2Cl)c1` [2-59]: the insecticidal activity in assay [1] and in assay [2] was 100% each time.

As to `Cc1cc(C(n2nc(Br)c(Br)c2Br)(C(F)(F)F)C(F)(F)F)cc(C)c1NC(=O)c1cccc(NC(=O)c2cccnc2Cl)c1` [2-133], the insecticidal activity in assay [1] and in assay [2] was 100% in each case.

Take `CCc1cc(C(Oc2ccc(Br)cc2)(C(F)(F)F)C(F)(F)F)cc(CC)c1NC(=O)c1cccc(NC(=O)c2cccnc2Cl)c1` [1-177]: the insecticidal activity in assay [1] and in assay [2] was 100% throughout.

With `CCc1cc(C(ON=Cc2ccc(Cl)cc2)(C(F)(F)F)C(F)(F)F)cc(C)c1NC(=O)c1cccc(NC(=O)c2cccnc2Cl)c1` [1-138], the insecticidal activity in assay [1] and in assay [2] was 100% each time.

With `O=C(Nc1c(Cl)cc(C(n2cc(Cl)cn2)(C(F)(F)F)C(F)(F)F)cc1Cl)c1cccc(NC(=O)c2ccccc2F)c1` [2-32], the insecticidal activity in assay [1] and in assay [2] was 100% each time.

For `CCc1cc(C(n2cc(C(F)(F)F)cn2)(C(F)(F)F)C(F)(F)F)cc(C)c1NC(=O)c1cccc(NC(=O)c2cccnc2Cl)c1` [2-105, 2-chloro-N-{3-[(2-ethyl-4-{1,1,1,3,3,3-hexafluoro-2-[4-(trifluoromethyl)-1H-pyrazol-1-yl]propan-2-yl}-6-methylphenyl)carbamoyl]-phenyl}pyridine-3-carboxamide], the insecticidal activity in assay [1] and in assay [2] was 100% in each case.

With `O=C(Nc1c(Cl)cc(C(n2cc(Cl)cn2)(C(F)(F)F)C(F)(F)F)cc1Cl)c1cccc(NC(=O)c2cccnc2Cl)c1` [2-61], the insecticidal activity in assay [1] and in assay [2] was 100% each time.

Take `CCc1cc(C(Oc2ccc(I)cc2)(C(F)(F)F)C(F)(F)F)cc(C)c1NC(=O)c1cccc(NC(=O)c2cccnc2Cl)c1` [1-152]: the insecticidal activity in assay [1] and in assay [2] was 100% throughout.

Regarding `CCc1cc(C(OCC(F)(F)F)(C(F)(F)F)C(F)(F)F)cc(C)c1NC(=O)c1cccc(NC(=O)c2cccnc2Cl)c1` [1-146], the insecticidal activity in assay [1] and in assay [2] was 100% throughout.

`CCc1cc(C(Oc2ccc(F)cc2)(C(F)(F)F)C(F)(F)F)cc(C)c1NC(=O)c1cccc(NC(=O)c2cccnc2Cl)c1` [1-128]: the insecticidal activity in assay [1] and in assay [2] was 100% throughout.

In the case of `Cc1cc(C(n2cccc2Br)(C(F)(F)F)C(F)(F)F)cc(C)c1NC(=O)c1cccc(NC(=O)c2cccnc2Cl)c1` [2-2], the insecticidal activity in assay [1] and in assay [2] was 100% throughout.

In the case of `Cc1cc(C(Oc2ccc(Cl)cc2)(C(F)(F)F)C(F)(F)F)cc(C)c1NC(=O)c1cccc(NC(=O)c2cccnc2Cl)c1` [1-160], the insecticidal activity in assay [1] and in assay [2] was 100% throughout.

For `Cc1cc(C(Oc2ccc(Br)cc2)(C(F)(F)F)C(F)(F)F)cc(C)c1NC(=O)c1cccc(NC(=O)c2cccnc2Cl)c1` [1-166], the insecticidal activity in assay [1] and in assay [2] was 100% in each case.

As for `CC#CCOC(c1cc(I)c(NC(=O)c2cccc(NC(=O)c3ccccc3)c2)c(I)c1)(C(F)(F)F)C(F)(F)F` [1-83], the insecticidal activity in assay [1] and in assay [2] was 100% throughout.

Regarding `CCc1cc(C(n2nc(Br)c(Br)c2Br)(C(F)(F)F)C(F)(F)F)cc(C)c1NC(=O)c1cccc(NC(=O)c2cccnc2F)c1` [2-128], the insecticidal activity in assay [1] and in assay [2] was 100% in each case.

With `Cc1cc(C(Oc2ccc(Cl)nc2)(C(F)(F)F)C(F)(F)F)cc(C)c1NC(=O)c1cccc(NC(=O)c2cccnc2Cl)c1` [1-182], the insecticidal activity in assay [1] and in assay [2] was 100% throughout.

Take `O=C(Nc1c(I)cc(C(n2cc(Cl)cn2)(C(F)(F)F)C(F)(F)F)cc1I)c1cccc(NC(=O)c2cccnc2Cl)c1` [2-63]: the insecticidal activity in assay [1] and in assay [2] was 100% each time.

For the compound `CCCOC(c1cc(I)c(NC(=O)c2cccc(NC(=O)c3ccc(Cl)nc3Cl)c2)c(I)c1)(C(F)(F)F)C(F)(F)F` [1-64], in assay [3], the acaricidal activity rate is 100%.

On to `CCc1cc(C(Oc2ccnc(C(F)(F)C(F)(F)F)c2)(C(F)(F)F)C(F)(F)F)cc(C)c1NC(=O)c1cccc(NC(=O)c2cccnc2Cl)c1` [1-142], for which the insecticidal activity in assay [1] and in assay [2] was 100% each time.

With `CCc1cc(C(Oc2ccc(OC(F)(F)F)cc2)(C(F)(F)F)C(F)(F)F)cc(C)c1NC(=O)c1cccc(NC(=O)c2cccnc2Cl)c1` [1-131], the insecticidal activity in assay [1] and in assay [2] was 100% in each case.

As for `Cc1cc(C(n2cc(I)c(I)n2)(C(F)(F)F)C(F)(F)F)cc(C)c1NC(=O)c1cccc(NC(=O)c2cccnc2Cl)c1` [2-116], the insecticidal activity in assay [1] and in assay [2] was 100% in each case.

Values taken from US20110201603A1, “Novel Acylaminobenzamide Derivatives” (Bayer CropScience AG, priority 2008, published 2011).
